Results taken from patent US20230293519A1, “INTEGRIN INHIBITORS AND USES THEREOF IN COMBINATION WITH OTHER AGENTS” (Pliant Therapeutics, Inc., priority 2021, published 2023).

Key:
[1] = test system: Type I Collagen gene Col1a1 expression; experiment: Precision cut lung slices of mice under acute bleomycin exposure; type: cell-based, mouse
Protocol: Mice (C57BL/6) were administered 3 U/kg of bleomycin (Teva Pharmaceuticals; North Wales, PA) on day 0 via oropharyngeal aspiration while under anesthesia. On day 14, precision cut lung slices were obtained. Following euthanization, 2% low gelling temp agarose was injected into the mouse lungs via the trachea. […] The lobes were then subjected to precision slicing to obtain samples for culture using a microtome (Compresstome VF-300-0Z, Precisionary; Greenville, NC). Individual slices were distributed in a multiwell culture plate and cultured for 3 days under control (DMSO) and test compound conditions.

lung Col1a1 expression = experiment: Precision cut lung slices of mice under chronic bleomycin exposure (vs pirfenidone and nintedanib); type: cell-based, mouse; settings: slices cultured 7 days; nintedanib and pirfenidone at 10x therapeutic concentrations
Protocol: Mice (C57BL/6) were administered 3 U/kg of bleomycin (Teva Pharmaceuticals; North Wales, PA) on Day 0 and 1 U/kg of bleomycin on days 14, 28, 42 and 56 via oropharyngeal aspiration while under anesthesia. At day 70, 14 days following the final bleomycin insult, precision cut lung slices were obtained. Following euthanization, 2% low gelling temp agarose was injected into the mouse lungs via the trachea. […] The lobes were then subjected to precision slicing to obtain samples for culture using a microtome (Compresstome VF-300-0Z, Precisionary; Greenville, NC). Individual slices were distributed in a multiwell culture plate and cultured for 7 days under control (DMSO) and test compound conditions. The viability of the slices over the course of culturing was confirmed by WST-1 assay of mitochondrial activity.
During the culture period, slices in the control group were treated with DMSO and slices in the test group were treated with a DMSO solution of one of: compound 5; nintedanib; pirfenidone; a combination of nintedanib and compound 5; a combination of pirfenidone and compound 5; or the small molecule ALK5 inhibitor. Compound 5 was […] effective to equal or exceed its respective IC50 values at αvβ6 and αvβ1. The small molecule ALK5 inhibitor was analyzed at 10x its reported IC50 value. Nintendanib and pirfenidone were analyzed at concentrations 10x their reported therapeutic concentrations.

COL1A1 expression = experiment: PCLS from human IPF lung tissue, 7 days: COL1A1 expression; type: cell-based; settings: Compound 5 200 nM, nintedanib 75 nM, pirfenidone 50 µM, 5-7 IPF lungs
Protocol: PCLS from 5-7 idopathic pulmonary fibrosis (IPF) lung tissue samples were cultured for seven days with one of: DMSO; Compound 5 at 200 nM; nintedanib at 75 nM; pirfenidone at 50 µm; a combination of Compound 5 at 200 nM and nintedanib at 75 nM; a combination of Compound 5 at 200 nM and pirfenidone at 50 µm; or an Alk5 inhibitor at 1 µm. […] FIG. 6D is a bar graph showing relative expression of COL1A1 in precision cut lung slices (PCLS) from idopathic pulmonary fibrosis (IPF) lung tissue upon exposure to Comopund 5, clinical standard of care compounds nintedanib (Nin) and pirfenidone (Pirf), and an ALK5 inhibitor, all versus DMSO control.
PCLS from a single IPF lung tissue sample were cultured for seven days with Compound 5 at concentrations of 200 pM, 2 nM, 60 nM, 200 nM, and 1 µM, along with 0.1% DMSO control and an Alk5 inhibitor at 1 µM. […] COL1A1 expression is also graphed for the PCLS in the presence of 0.1% DMSO control, and an Alk5 inhibitor at 1 µM.

[2] = test system: fibrosis-related gene expression in explanted human lung tissue from patients with idiopathic pulmonary fibrosis; experiment: nCounter Fibrosis Panel gene expression in precision cut lung slices from IPF explants; type: cell-based; settings: IPF PCLS, 7 days, vs DMSO
Excerpt: Fibrosis-related gene expression in explanted human lung tissue from patients with idiopathic pulmonary fibrosis was examined in order to determine what impact combining Compound 5 treatment with standard-of-care drugs nintedanib or pirfenidone, has on the expression of such genes.
Samples used for this analysis are a subset (n = 4 of 7) of the lungs previously reported on in Decaris et al., Respir Res (2021) 22:265 (FIGS. 6 A and B). Briefly, tissue samples from patients with IPF were acquired at the time of lung transplantation. Precision cut lung slices were generated from the explants and cultured for 7 days in the presence of inhibitors (Compound 5, nintedanib, pirfenidone) at clinically relevant concentrations or vehicle (DMSO). Treated slices were lysed in mRNA-compatible buffer for gene expression analysis. For this study, the lysate from n = 6 slices per treatment per lung were pooled for analysis using the nCounter Fibrosis Panel (Nanostring) on the nCounter Max analyzer (Nanostring). This commercially available panel of 770 genes includes genes related to initial tissue damage response, chronic inflammation, proliferation of pro-fibrotic cells, and tissue modification leading to fibrotic disease. Technical quality control and normalization of raw Nanostring mRNA count data was performed using an R framework developed by Bhattacharya et al. (Bhattacharya A. et al., Brief Bioinform. 2021 May 20;22(3):bbaa163). The R packages limma (see URL www.bioconductor.org/packages/release/bioc/html/limma.html) and voom (Law, C.W. et al., Genome Biol. 2014 Feb 3;15(2):R29) were used to detect differentially expressed genes. Benjamini-Hochberg False Discovery Rate (FDR = 5%) was used to adjust p-values for multiple comparisons.

[3] = target: recombinant human integrin αvβ6 (Homo sapiens (Human), UniProt P06756+P18564); experiment: Solid phase integrin αvβ6 binding assay; settings: IC50 presented in four ranges; read-out: αvβ6 Inhibition IC50 (nM) - range
Sequence of recombinant human integrin αvβ6 (P06756 31-889): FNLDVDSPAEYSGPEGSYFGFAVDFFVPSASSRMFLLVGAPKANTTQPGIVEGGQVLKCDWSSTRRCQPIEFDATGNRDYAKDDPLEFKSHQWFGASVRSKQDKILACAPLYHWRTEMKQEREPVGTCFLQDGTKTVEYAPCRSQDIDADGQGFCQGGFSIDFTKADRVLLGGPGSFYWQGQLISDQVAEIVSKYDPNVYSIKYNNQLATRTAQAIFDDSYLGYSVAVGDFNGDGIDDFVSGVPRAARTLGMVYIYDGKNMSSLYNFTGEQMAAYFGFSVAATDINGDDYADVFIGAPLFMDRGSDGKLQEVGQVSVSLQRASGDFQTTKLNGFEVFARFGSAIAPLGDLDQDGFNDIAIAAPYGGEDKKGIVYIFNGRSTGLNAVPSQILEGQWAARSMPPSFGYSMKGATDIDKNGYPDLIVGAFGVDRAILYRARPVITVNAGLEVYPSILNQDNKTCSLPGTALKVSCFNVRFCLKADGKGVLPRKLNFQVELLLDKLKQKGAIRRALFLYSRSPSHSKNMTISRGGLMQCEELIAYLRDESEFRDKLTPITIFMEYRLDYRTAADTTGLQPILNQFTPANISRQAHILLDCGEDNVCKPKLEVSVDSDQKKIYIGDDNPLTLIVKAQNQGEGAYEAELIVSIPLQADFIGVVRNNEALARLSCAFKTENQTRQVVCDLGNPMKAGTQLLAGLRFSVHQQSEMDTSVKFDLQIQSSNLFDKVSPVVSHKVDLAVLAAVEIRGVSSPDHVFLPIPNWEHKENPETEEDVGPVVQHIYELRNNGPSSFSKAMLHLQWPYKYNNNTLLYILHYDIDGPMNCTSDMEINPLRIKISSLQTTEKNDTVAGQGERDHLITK
Sequence of recombinant human integrin αvβ6 (P06756 890-992 partner): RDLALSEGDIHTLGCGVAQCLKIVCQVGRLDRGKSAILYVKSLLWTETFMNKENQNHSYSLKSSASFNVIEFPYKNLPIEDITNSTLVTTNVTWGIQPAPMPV
Sequence of recombinant human integrin αvβ6 (P18564 22-707): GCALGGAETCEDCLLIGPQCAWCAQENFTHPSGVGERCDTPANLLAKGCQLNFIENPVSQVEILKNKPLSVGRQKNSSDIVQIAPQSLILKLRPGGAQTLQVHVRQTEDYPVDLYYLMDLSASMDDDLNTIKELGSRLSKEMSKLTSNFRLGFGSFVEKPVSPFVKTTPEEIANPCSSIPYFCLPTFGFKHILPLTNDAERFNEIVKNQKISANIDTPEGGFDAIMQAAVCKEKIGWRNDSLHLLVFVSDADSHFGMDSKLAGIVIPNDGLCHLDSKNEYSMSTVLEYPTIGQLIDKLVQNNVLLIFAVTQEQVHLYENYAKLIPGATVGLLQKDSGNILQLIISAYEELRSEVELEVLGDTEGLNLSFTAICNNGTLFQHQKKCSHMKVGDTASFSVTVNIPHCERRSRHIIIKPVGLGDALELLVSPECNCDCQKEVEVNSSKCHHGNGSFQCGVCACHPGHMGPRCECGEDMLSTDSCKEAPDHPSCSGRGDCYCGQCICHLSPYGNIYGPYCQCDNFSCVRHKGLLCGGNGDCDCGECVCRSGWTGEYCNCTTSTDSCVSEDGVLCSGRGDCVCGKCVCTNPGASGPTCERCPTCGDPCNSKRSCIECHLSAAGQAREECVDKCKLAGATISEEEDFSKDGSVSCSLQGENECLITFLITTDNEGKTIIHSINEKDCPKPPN
Protocol: (§1) Microplates were coated with recombinant human integrin αvβ6 (2 µg/mL) in PBS (100 µL/well 25° C., overnight). The coating solution was removed, washed with wash buffer (0.05% Tween 20; 0.5 mM MnCl2; in 1x TBS). The plate was blocked with 200 µL/well of Block Buffer (1% BSA; 5% sucrose; 0.5 mM MnCl2; in 1x TBS) at 37° C. for 2 h. Dilutions of testing compounds and recombinant TGFβ1 LAP (0.67 µg/mL) in binding buffer (0.05% BSA; 2.5% sucrose; 0.5 mM MnCl2; in 1x TBS) were added. The plate was incubated for 2 hours at 25° C., washed, and incubated for 1 hour with Biotin-Anti-hLAP. Bound antibody was detected by peroxidase-conjugated streptavidin. The IC50 values for testing compounds were calculated by a four-parameter logistic regression.
The compounds tested were compound samples prepared according to procedures described in the Synthetic Examples section, with the stereochemical purity as indicated in the Examples.
as §1, with “A third series of exemplary compounds was selected for testing in the solid phase integrin αvβ6 binding assay. The compounds tested were compound samples prepared according to procedures described in the Synthetic Examples section, with the stereochemical purity as indicated in the Examples. As in Example B1, microplates” for “Microplates”

SMILES: COC(=O)c1ccc2c(c1)NC(=O)/C2=C(\Nc1ccc(N(C)C(=O)CN2CCN(C)CC2)cc1)c1ccccc1 [nintedanib, 3-Z-[1-(4-(N-((4-methyl-piperazin-1-yl)-methylcarbonyl)-N-methyl-amino)-anilino)-1-phenyl-methylene]-6-methoxycarbonyl-2-indolinone]
- fold increase in concentration over compound 5 needed to reduce lung slice Col1a1 expression by 50% ([1]; acute bleomycin injured lung slices): 5.2 fold
- lung Col1a1 expression vs DMSO control (lung Col1a1 expression): slight increase
- reduction of COL1A1 expression (COL1A1 expression): did not significantly reduce
- % Reduction of APOC2 expression [2]: 16.88%
- % Reduction of CDH2 expression [2]: -9.99%
- % Reduction of COL1A1 expression [2]: 27.60%
- % Reduction of COL4A2 expression [2]: 31.55%
- % Reduction of FAP expression [2]: 35.72%
- % Reduction of FCGR3A/B expression [2]: 33.44%
- % Reduction of ITGB3 expression [2]: 16.60%
- % Reduction of LOX expression [2]: 40.76%
- % Reduction of LOXL2 expression [2]: 15.99%
- % Reduction of NID1 expression [2]: 26.59%
- % Reduction of PDGFRB expression [2]: 42.09%
- % Reduction of POSTN expression [2]: 38.94%
- % Reduction of SERPINE1 expression [2]: 9.75%
- % Reduction of SERPINH1 expression [2]: 15.02%
- % Reduction of SPP1 expression [2]: 59.73%
- % Reduction of TGFB1 expression [2]: 21.04%
- % Reduction of THBS2 expression [2]: 25.58%
- logFC of ACTA2 expression [2]: 0.6841
- logFC of ACVRL1 expression [2]: -1.329
- logFC of ADH1B expression [2]: 0.8975
- logFC of ADH1C expression [2]: 0.9337
- logFC of ALDH7A1 expression [2]: 0.7402
- logFC of AMOTL2 expression [2]: 0.5767
- logFC of CCL19 expression [2]: 0.789
- logFC of CD34 expression [2]: -1.516
- logFC of CDH5 expression [2]: -2.328
- logFC of CETP expression [2]: -1.732
- logFC of CFTR expression [2]: 0.8907
- logFC of COL6A5 expression [2]: 0.6309
- logFC of COL10A1 expression [2]: -1.169
- logFC of COX4I2 expression [2]: -2.07
- logFC of CXCL10 expression [2]: -1.71
- logFC of CXCR4 expression [2]: -1.727
- logFC of CYP2J2 expression [2]: 1.025
- logFC of DLL4 expression [2]: -2.786
- logFC of ELN expression [2]: 0.8689
- logFC of FLT1 expression [2]: -3.369
- logFC of FLT4 expression [2]: -1.476
- logFC of FST expression [2]: 1.092
- logFC of GPX2 expression [2]: 1.178
- logFC of IGF1 expression [2]: 0.632
- logFC of KLF5 expression [2]: 0.8124
- logFC of LAMA3 expression [2]: 0.6871
- logFC of MASP1 expression [2]: 0.8164
- logFC of MET expression [2]: 0.7131
- logFC of MMP8 expression [2]: -1.053
- logFC of MMP9 expression [2]: -1.1396
- logFC of MMP11 expression [2]: -1.002
- logFC of MMP12 expression [2]: -1.411
- logFC of NOS3 expression [2]: -1.356
- logFC of NOTCH4 expression [2]: -1.605
- logFC of OCLN expression [2]: 0.6026
- logFC of PECAM1 expression [2]: -1.967
- logFC of PYGM expression [2]: 0.6237
- logFC of TEK expression [2]: -1.206
- logFC of TPSAB1/B2 expression [2]: -1.195
- logFC of WWC1 expression [2]: 0.7518

SMILES: CC(C)(C)c1cc(Br)cc(C(CC(=O)O)NC(=O)CNC(=O)c2cc(O)cc(NC3=NCC(O)CN3)c2)c1 [second pan-αv small molecule inhibitor, (3S)-N-[3-hydroxy-5-[(1,4,5,6-tetrahydro-5-hydroxy-2-pyrimidinyl)amino]benzoyl]glycyl-3-[3-bromo-5-(1,1-dimethylethyl)phenyl]-(3-alanine]
- Type I Collagen gene Col1a1 expression vs DMSO control ([1]; slices cultured 3 days, integrin inhibitors at IC50, pan-αv and ALK5 inhibitors at 10x IC50): reduced

SMILES: CN(C)C(=O)CN(CCCCc1ccc2c(n1)NCCC2)CC[C@H](Nc1ncnc2ccccc12)C(=O)O [compound 64]
- IC50 [3]: < 50 nM

SMILES: COC[C@@H](F)CN(CCCCc1ccc2c(n1)NCCC2)CC[C@H](Nc1cc(-n2cccn2)ncn1)C(=O)O [compound 108]
- IC50 [3]: > 1000 nM

SMILES: CO[C@H](C)CN(CCCCc1ccc2c(n1)NCCC2)CC[C@H](Nc1nc(C)nc2cc(F)ccc12)C(=O)O [compound 65]
- IC50 [3]: < 50 nM

SMILES: COCCN(CCCCc1ccc2c(n1)NCCC2)CCC(Nc1ncnc2ncccc12)C(=O)O (stereo not shown) [compound 11]
- IC50 [3]: < 50 nM

SMILES: CS(=O)(=O)CCN(CCCCc1ccc2c(n1)NCCC2)CC[C@H](Nc1ncc(C(F)(F)F)cn1)C(=O)O [compound 102]
- IC50 [3]: > 1000 nM

SMILES: COCCN(CCCCc1ccc2c(n1)NCCC2)CC[C@H](Nc1ncnc2cc(F)ccc12)C(=O)O [compound 7]
- IC50 [3]: < 50 nM

SMILES: CS(=O)(=O)CCN(CCCCc1ccc2c(n1)NCCC2)CC[C@H](Nc1ccnc(C(F)(F)F)n1)C(=O)O [compound 104]
- IC50 [3]: > 1000 nM

SMILES: CO[C@H](C)CN(CCCCc1ccc2c(n1)NCCC2)CC[C@H](Nc1ccnc(-c2ccccc2)n1)C(=O)O [compound 73]
- IC50 [3]: < 50 nM

SMILES: COCCN(CCCCc1ccc2c(n1)NCCC2)CC[C@H](Nc1nc(C)nc2cc(F)ccc12)C(=O)O [compound 12]
- IC50 [3]: < 50 nM
